Source: US20190315823A1, “SMALL CATIONIC ANTI-BIOFILM AND IDR PEPTIDES” (priority 2013, published 2019)
Ends that are not written are not given here.

Experiments:
[1] = test system: human peripheral blood mononuclear cells (MCP-1); test: SPOT-synthesized derivative screen: production of chemokine MCP-1; type: cell-based; settings: Table 12, No LPS, human PBMC, peptide at ~18-24 μM; for MCP1: background subtracted 139 (HH2 derivatives), 170 (1018 derivatives), 242 (1002 and hybrid peptides) pg/ml
Outline: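 PBMC from heparinized healthy-donor venous blood, Ficoll-separated, cultured at 0.75 to 1×10^6 cells/ml, 37 °C, 5% CO2, under the treatment regimens. MCP-1 in cell-free supernatants measured by capture ELISA.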

[2] = test system: methicillin resistant Staphylococcus aureus (MRSA) biofilm; settings: approximate peptide concentration […] (around 3 μg/ml); compared to untreated samples
Outline: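 Static biofilm assay: 1/100 dilutions of overnight cultures grown in BM2 medium (pH 7, glucose, Casamino Acids) or Luria Broth with peptide added at time zero. After 22–46 h, adherent biofilm was stained with crystal violet and read at 595 nm. Some peptides were also tested on K. pneumoniae under flow in a Bioflux system.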

[3] = test system: LPS-stimulated human peripheral blood mononuclear cells (IL1-β); type: cell-based; settings: Table 12, cells stimulated with 10 ng/ml LPS; for IL1β Production: LPS alone 1313 (HH2 derivatives), 1927 (1018 derivatives), 2455 (1002 and hybrid peptides) pg/ml

Substance	Fold increase in MCP1 cf. untreated cells [1]	MCP1 [1] [pg/mL]	% Biofilm inhibition [2] [%]	Fold change in IL1β relative to no peptide LPS stimulated cells [3]	IL1β Production [3] [pg/mL]
1002-G12: single substituted 1002 peptide (VQRWLIVWRIRG-NH2) [Peptide 1002-G12]	0.9	-36.2	50	0.10	240
1018-R7: single substituted 1018 peptide (VRLIVARRIWRR-NH2) [Peptide 1018-R7]	1.9	161	0	1.68	2201
1018-A9: single substituted 1018 peptide (VRLIVAVRAWRR-NH2) [Peptide 1018-A9]	0.5	-88	49	0.90	1176
1018-R3: single substituted 1018 peptide (VRRIVAVRIWRR-NH2) [Peptide 1018-R3]	3.0	349	29	1.25	1636
1018-W8: single substituted 1018 peptide (VRLIVAVWIWRR-NH2) [Peptide 1018-W8]	0.8	-28	43	0.34	448
HH2-Q7: single substituted HH2 peptide (VQLRIRQAVIRA-NH2)	3.9	488	21	1.00	1316
1018-I7: single substituted 1018 peptide (VRLIVAIRIWRR-NH2) [Peptide 1018-I7]	5.2	714	63	0.10	127
HH2-K9: single substituted HH2 peptide (VQLRIRVAKIRA-NH2)	2.1	180	52	1.16	1520
HH2-Q12: single substituted HH2 peptide (VQLRIRVAVIRQ-NH2)	13	2034	72	0.73	965
HH2-K8: single substituted HH2 peptide (VQLRIRVKVIRA-NH2)	9.8	1501	73	0.65	851
1002-V3: single substituted 1002 peptide (VQVWLIVWRIRK-NH2) [Peptide 1002-V3]	2.5	359.1	49	0.05	127
HH2-K6: single substituted HH2 peptide (VQLRIKVAVIRA-NH2)	142	23989	64	0.80	1055
1018-L6: single substituted 1018 peptide (VRLIVLVRIWRR-NH2) [Peptide 1018-L6]	0.7	-60	69	0.26	340
1018-L7: single substituted 1018 peptide (VRLIVALRIWRR-NH2) [Peptide 1018-L7]	0.9	-10	72	0.10	132
1002-Q8: single substituted 1002 peptide (VQRWLIVQRIRK-NH2) [Peptide 1002-Q8]	0.9	-36.2	20	0.66	1608
HH2-L2: single substituted HH2 peptide (VLLRIRVAVIRA-NH2)	13	1950	69	0.89	1172
1018-K1: single substituted 1018 peptide (KRLIVAVRIWRR-NH2) [Peptide 1018-K1]	1.2	40	49	0.13	173
1002-Q10: single substituted 1002 peptide (VQRWLIVWRQRK-NH2) [Peptide 1002-Q10]	1.3	71.2	39	0.05	127
1002-W12: single substituted 1002 peptide (VQRWLIVWRIRW-NH2) [Peptide 1002-W12]	2.7	412.5	71	0.05	127
1002-L8: single substituted 1002 peptide (VQRWLIVLRIRK-NH2) [Peptide 1002-L8]	10.8	2367.1	57	0.06	135
1018-I6: single substituted 1018 peptide (VRLIVIVRIWRR-NH2) [Peptide 1018-I6]	1.6	110	65	0.44	582
1002-L3: single substituted 1002 peptide (VQLWLIVWRIRK-NH2) [Peptide 1002-L3]	1.4	106.3	59	0.05	127
HH2-G4: single substituted HH2 peptide (VQLGIRVAVIRA-NH2)	148	25045	40	1.21	1582
HH2-L6: single substituted HH2 peptide (VQLRILVAVIRA-NH2)	1.8	138	18	0.69	901
HH2-W12: single substituted HH2 peptide (VQLRIRVAVIRW-NH2)	44	7325	58	0.32	420
